4 molecules from patent US8912227B1, “Bicyclic pyrrole derivatives useful as agonists of GPR120” (Janssen Pharmaceutica NV, priority 2014, dated 2014) can be followed below.

Experiment [1] concerns the target T1, Human GPR120 short form (Homo sapiens, UniProt Q5NUL3).
T1 construct: expressed in transfected cells
T1 sequence (Q5NUL3 1-361): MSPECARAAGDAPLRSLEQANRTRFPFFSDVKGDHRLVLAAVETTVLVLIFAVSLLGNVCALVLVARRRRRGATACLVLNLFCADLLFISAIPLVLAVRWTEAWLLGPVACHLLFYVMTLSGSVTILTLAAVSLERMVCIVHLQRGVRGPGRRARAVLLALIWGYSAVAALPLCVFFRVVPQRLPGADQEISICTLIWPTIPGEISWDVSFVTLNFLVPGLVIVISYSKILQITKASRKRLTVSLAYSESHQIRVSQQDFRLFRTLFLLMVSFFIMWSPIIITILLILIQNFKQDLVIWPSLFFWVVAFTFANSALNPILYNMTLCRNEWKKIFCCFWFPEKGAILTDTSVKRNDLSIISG
Kind of experiment: Human GPR120 calcium flux assay, Procedure Calcium A. It counts as cell-based. The settings on record: HEK-293 cells expressing human GPR120 short form, 2500 cells/well, FLIPR. The procedure, abridged: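 HEK293 cells stably expressing the human GPR120 short splice variant (NM_001195755.1) were seeded at 2500 cells/well, serum-starved 1 h and loaded with Fluo-4 NW plus probenecid. Compounds (100–0.012 μM solutions, 0.2% final DMSO) were added, and FLIPR calcium flux was read for 300 s. EC50 came from a variable-slope fit (Hill <2) of Fmax−Fmin.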
In general terms: Calcium flux is commonly read through the fluorescence of an indicator in the cells.

A further experiment concerns C57bl/6J Mice. In words: GPR120 C57bl6 mouse IPGTT. It counts as in vivo. The conditions noted are these: 30.0 mg/kg, dosed 30 minutes prior to IP glucose 1.5 g/kg; compared with vehicle. How it is done: Male, C57bl/6J Mice were ordered in at 8 weeks of age from Jackson Labs. Individual mice weighed anywhere in the range of 25-30 grams on study day. The mice were fasted, with removal of food occurring at 7 am on the morning of the study. Animals were moved into the room at 10:00 am, to give them time to acclimate. Glucose (insulin syringes) was drawn up either the night before or the morning of the study. Glucose was dosed (IP) at 1.5 g/kg at 7.5 ml/kg (20% glucose straight TEKNOVA, 250 ml sterile bottle w/ catalogue number G0525). Test compounds were kept spinning and were only drawn into the syringes prior to study commencement. Animals were bled via tail snip to determine basal glucose levels prior to dosing of treatments. An Ascensia BREEZE Blood Glucose Monitoring System by Bayer (using unique 10-test disks) was used for determining glucose levels. The bleeds started at approximately 12:45 pm and dosing started, at 1-minute intervals, immediately after. All groups were dosed 30 minutes prior to glucose administration at a dose volume of 10 ml/kg (the dose volume was calculated separately for each individual animal). Thirty minutes after the first dose animals were bled again for a second baseline, or T=0, and immediately dosed with glucose via an i.p. injection. The exact dose volume for glucose was also calculated separately for each individual animal. […]

Experiment [2] addresses T1, Human GPR120 short form. Kind of experiment: Human GPR120 calcium flux assay, Procedure Calcium B. It counts as cell-based. The conditions noted are these: HEK-293 cells expressing human GPR120 short form, 4200 cells/well, FLIPR.

SMILES strings stand for the structures. pEC50: −log10 of the molar value.

`Cc1c(CCC(=O)O)ccc(OCc2cccn2-c2ccc(Cl)cc2)c1C` [Compound 1, 3-(4-{[1-(4-Chlorophenyl)-1H-pyrrol-2-yl]methoxy}-2,3-dimethylphenyl)propanoic acid]: at Human GPR120 short form [1], the negative-log EC50 (pEC50) (usually −log10 of the EC50, conventionally taken in molar units) was 6.45. For the same molecule, in the experiment with C57bl/6J Mice, the “GPR120 C57bl6 Mouse IPGTT Results” value is given as “not different”.
As for `OCCCc1ccc(OCc2c(C(F)(F)F)ccn2-c2ccc(Cl)cc2)c(F)c1F` [Compound 29, 3-(4-{[1-(4-Chlorophenyl)-3-(trifluoromethyl)-1H-pyrrol-2-yl]methoxy}-2,3-difluorophenyl)propan-1-ol], the pEC50 was 6.00 on Human GPR120 short form [1] and 6.79 at Human GPR120 short form [2].
For `CCc1ccc(-n2ccc(C(F)(F)F)c2COc2ccc(CCC(=O)O)c(F)c2F)cc1` [Compound 34, 3-(4-[[1-(4-ethylphenyl)-3-(trifluoromethyl)-1H-pyrrol-2-yl]methoxy]-2,3-difluorophenyl)propanoic acid] the same measures were 6.29 and 7.40.
Taken in the same sequence, the figures for `Cc1ccc(-n2ccc(C(F)(F)F)c2COc2c(F)cc(CCC(=O)O)cc2F)cc1` [Compound 39, 3-(3,5-difluoro-4-[[1-(4-methylphenyl)-3-(trifluoromethyl)-1H-pyrrol-2-yl]methoxy]phenyl)propanoic acid] were 6.51 and 7.30.
